Laboratory results: BigSolDB 2.1

Molecule `CNC[C@H](O)[C@@H](O)[C@H](O)[C@H](O)CO.Cc1c(Nc2ncccc2C(=O)O)cccc1C(F)(F)F` has a solubility (mole fraction) (in acetone, 283.15 K) of 0.00077, a solubility (mole fraction) (in acetone, 288.15 K) of 0.000937 and a solubility (mole fraction) (in acetone, 293.15 K) of 0.00119. It also gave a solubility (mole fraction) (in acetone, 298.15 K) of 0.00158, a solubility (mole fraction) (in acetone, 303.15 K) of 0.00215 and a solubility (mole fraction) (in acetone, 308.15 K) of 0.00275. The solubility (mole fraction) (in acetone, 313.15 K) was 0.00354, the solubility (mole fraction) (in acetone, 318.15 K) was 0.0048 and the solubility (mole fraction) (in acetone, 323.15 K) was 0.00698. It also gave a solubility (mole fraction) (in acetone, 328.15 K) of 0.0104, a solubility (mole fraction) (in acetonitrile, 283.15 K) of 3.16e-05 and a solubility (mole fraction) (in acetonitrile, 288.15 K) of 3.86e-05. It also gave a solubility (mole fraction) (in acetonitrile, 293.15 K) of 4.58e-05, a solubility (mole fraction) (in acetonitrile, 298.15 K) of 6.88e-05 and a solubility (mole fraction) (in acetonitrile, 303.15 K) of 0.000109. For the same molecule, the solubility (mole fraction) (in acetonitrile, 308.15 K) was 0.000173, the solubility (mole fraction) (in acetonitrile, 313.15 K) was 0.00025 and the solubility (mole fraction) (in acetonitrile, 318.15 K) was 0.00035. The solubility (mole fraction) (in acetonitrile, 323.15 K) was 0.000517, the solubility (mole fraction) (in acetonitrile, 328.15 K) was 0.000733 and the solubility (mole fraction) (in ethanol, 283.15 K) was 0.00285. The solubility (mole fraction) (in ethanol, 288.15 K) was 0.00353, the solubility (mole fraction) (in ethanol, 293.15 K) was 0.00448 and the solubility (mole fraction) (in ethanol, 298.15 K) was 0.00576. For the same molecule, the solubility (mole fraction) (in ethanol, 303.15 K) was 0.00775, the solubility (mole fraction) (in ethanol, 308.15 K) was 0.0113 and the solubility (mole fraction) (in ethanol, 313.15 K) was 0.0162. It also gave a solubility (mole fraction) (in ethanol, 318.15 K) of 0.0228, a solubility (mole fraction) (in ethanol, 323.15 K) of 0.0345 and a solubility (mole fraction) (in ethanol, 328.15 K) of 0.0502. It also gave a solubility (mole fraction) (in isopropanol, 283.15 K) of 0.000626, a solubility (mole fraction) (in isopropanol, 288.15 K) of 0.000759 and a solubility (mole fraction) (in isopropanol, 293.15 K) of 0.000924. It also gave a solubility (mole fraction) (in isopropanol, 298.15 K) of 0.00118, a solubility (mole fraction) (in isopropanol, 303.15 K) of 0.00162 and a solubility (mole fraction) (in isopropanol, 308.15 K) of 0.00198. The solubility (mole fraction) (in isopropanol, 313.15 K) was 0.00299, the solubility (mole fraction) (in isopropanol, 318.15 K) was 0.00433 and the solubility (mole fraction) (in isopropanol, 323.15 K) was 0.00642. It also gave a solubility (mole fraction) (in isopropanol, 328.15 K) of 0.00934, a solubility (mole fraction) (in methanol, 283.15 K) of 0.0202 and a solubility (mole fraction) (in methanol, 288.15 K) of 0.024. It also gave a solubility (mole fraction) (in methanol, 293.15 K) of 0.0293, a solubility (mole fraction) (in methanol, 298.15 K) of 0.0349 and a solubility (mole fraction) (in methanol, 303.15 K) of 0.0448. It also gave a solubility (mole fraction) (in methanol, 308.15 K) of 0.0547, a solubility (mole fraction) (in methanol, 313.15 K) of 0.0652 and a solubility (mole fraction) (in methanol, 318.15 K) of 0.08. The solubility (mole fraction) (in methanol, 323.15 K) was 0.0934, the solubility (mole fraction) (in methanol, 328.15 K) was 0.111 and the solubility (mole fraction) (in water, 283.15 K) was 0.00738. It also gave a solubility (mole fraction) (in water, 288.15 K) of 0.00886, a solubility (mole fraction) (in water, 293.15 K) of 0.0111 and a solubility (mole fraction) (in water, 298.15 K) of 0.0151. It also gave a solubility (mole fraction) (in water, 303.15 K) of 0.021, a solubility (mole fraction) (in water, 308.15 K) of 0.0286 and a solubility (mole fraction) (in water, 313.15 K) of 0.0382. It also gave a solubility (mole fraction) (in water, 318.15 K) of 0.0504, a solubility (mole fraction) (in water, 323.15 K) of 0.0633 and a solubility (mole fraction) (in water, 328.15 K) of 0.0807.
